According to patent publication US20110071180A1, “SUB-TYPE SELECTIVE AMIDES OF DIAZABICYCLOALKANES” (Targacept, Inc., priority 2008, published 2011):

Legend:
human α4β2 nAChR subtype = biological target: T1, human α4β2 nAChR subtype (Homo sapiens, UniProt P17787+P43681); assay: Radioligand binding, [3H]nicotine, membranes from SH-EP1/human α4β2 clonal cells; details: [3H]nicotine 5 nM, SH-EP1/human α4β2 cell membranes
T1 construct: expressed in transfected cells; host or cells: SH-EP1 clonal cells expressing human α4β2
Description: Preparation of membranes from SH-EP1/human α4β2 clonal cells: Cell pellets from 40 150 mm culture dishes were pooled, and homogenized by Polytron (Kinematica GmbH, Switzerland) in 20 milliliters of ice-cold preparative buffer. The homogenate was centrifuged at 48,000 g for 20 minutes at 4° C. The resulting pellet was re-suspended in 20 mL of ice-cold preparative buffer and stored at −20° C.
(§1) On the day of the assay, the frozen membranes were thawed and spun at 48,000×g for 20 min. The supernatant was decanted and discarded. The pellet was resuspended in Dulbecco's phosphate buffered saline (PBS, Life Technologies) pH 7.4 and homogenized with the Polytron for 6 seconds. Protein concentrations were determined using a Pierce BCA Protein Assay Kit, with bovine serum albumin as the standard (Pierce Chemical Company, Rockford, Ill.).
(§2) Membrane preparations (approximately 50 μg for human and 200-300 μg protein for rat α4β2) were incubated in PBS (50 μL and 100 μL respectively) in the presence of competitor compound (0.01 nM to 100 μM) and 5 nM [^3H]nicotine for 2-3 hours on ice. Incubation was terminated by rapid filtration on a multi-manifold tissue harvester (Brandel, Gaithersburg, Md.) using GF/B filters presoaked in 0.33% polyethyleneimine (w/v) to reduce non-specific binding. Tissue was rinsed 3 times in PBS, pH 7.4. Scintillation fluid was added to filters containing the washed tissue and allowed to equilibrate. Filters were then counted to determine radioactivity bound to the membranes by liquid scintillation counting (2200CA Tri-Carb LSC, Packard Instruments, 50% efficiency or Wallac Trilux 1450 MicroBeta, 40% efficiency, Perkin Elmer).
(§3) Data were expressed as disintegrations per minute (DPMs). Within each assay, each point had 2-3 replicates. The replicates for each point were averaged and plotted against the log of the drug concentration. IC50, which is the concentration of the compound that produces 50% inhibition of binding, was determined by least squares non-linear regression. Ki values were calculated using the Cheng-Prussof equation (1973): […]

α7 nAChR subtype = biological target: T2, α7 nAChR subtype (Rattus norvegicus, UniProt Q05941); assay: Radioligand binding, [3H]MLA, rat hippocampus membranes; details: for inhibition at 5 µM: read-out: α7 high through-put screening (HTS) result; for Ki: [3H]MLA 5 nM, rat hippocampus membranes, read-out: α7 Ki
T2 construct: The hippocampus was removed and placed in 10 volumes (weight:volume) of ice-cold preparative buffer; from tissue; host or cells: rat hippocampus membranes (female Sprague-Dawley)
Description: Rats (female, Sprague-Dawley), weighing 150-250 g, were maintained on a 12 h light/dark cycle and were allowed free access to water and food supplied by PMI Nutrition International, Inc. Animals were anesthetized with 70% CO2, then decapitated. Brains were removed and placed on an ice-cold platform. The hippocampus was removed and placed in 10 volumes (weight:volume) of ice-cold preparative buffer (137 mM NaCl, 10.7 mM KCl, 5.8 mM KH2PO4, 8 mM Na2HPO4, 20 mM HEPES (free acid), 5 mM iodoacetamide, 1.6 mM EDTA, pH 7.4); PMSF, dissolved in methanol to a final concentration of 100 μM, was added and the tissue suspension was homogenized by Polytron. The homogenate was centrifuged at 18,000×g for 20 min at 4° C. and the resulting pellet was re-suspended in 10 volumes of ice-cold water. After 60 min incubation on ice, a new pellet was collected by centrifugation at 18,000×g for 20 min at 4° C. The final pellet was re-suspended in 10 volumes of buffer and stored at −20° C. On the day of the assay, tissue was thawed, centrifuged at 18,000×g for 20 min, and then re-suspended in ice-cold PBS (Dulbecco's Phosphate Buffered Saline, 138 mM NaCl, 2.67 mM KCl, 1.47 mM KH2PO4, 8.1 mM Na2HPO4, 0.9 mM CaCl2, 0.5 mM MgCl2, Invitrogen/Gibco, pH 7.4) to a final concentration of approximately 2 mg protein/mL. Protein was determined by the method of Lowry et al., J. Biol. Chem. 193: 265 (1951), using bovine serum albumin as the standard.
The binding of [^3H]MLA was measured using a modification of the methods of Davies et al., Neuropharmacol. 38: 679 (1999). [^3H]MLA (Specific Activity=25-35 Ci/mmol) was obtained from Tocris. The binding of [^3H]MLA was determined using a 2 h incubation at 21° C. Incubations were conducted in 48-well micro-titre plates and contained about 200 μg of protein per well in a final incubation volume of 300 μL. The incubation buffer was PBS and the final concentration of [^3H]MLA was 5 nM. The binding reaction was terminated by filtration of the protein containing bound ligand onto glass fiber filters (GF/B, Brandel) using a Brandel Tissue Harvester at room temperature. Filters were soaked in de-ionized water containing 0.33% polyethyleneimine to reduce non-specific binding. Each filter was washed with PBS (3×1 mL) at room temperature. Non-specific binding was determined by inclusion of 50 μM non-radioactive MLA in selected wells.
The inhibition of [^3H]MLA binding by test compounds was determined by including seven different concentrations of the test compound in selected wells. Each concentration was replicated in triplicate. IC50 values were estimated as the concentration of compound that inhibited 50 percent of specific [^3H]MLA binding. Inhibition constants (Ki values), reported in nM, were calculated from the IC50 values using the method of Cheng et al., Biochem. Pharmacol. 22: 3099-3108 (1973).

rat α4β2 nAChR subtype [1] = biological target: T3, rat α4β2 nAChR subtype (Rattus norvegicus, UniProt P09483+P12390); assay: Radioligand binding, [3H]nicotine, rat cortex membranes; details: 5 μM compound, 5 nM 3H-nicotine; Ki not determined
T3 construct: The cerebral cortex was removed and placed in 20 volumes (weight:volume) of ice-cold preparative buffer; from tissue; host or cells: rat cerebral cortex membranes (female Sprague-Dawley)

rat α4β2 nAChR subtype [2] = biological target: T3, rat α4β2 nAChR subtype; assay: as above; details: [3H]nicotine 5 nM
Description: Preparation of Membranes from Rat Cortex: Rats (Female, Sprague-Dawley), weighing 150-250 g, were maintained on a 12 h light/dark cycle and were allowed free access to water and food supplied by PMI Nutrition International, Inc. Animals were anesthetized with 70% CO2, and then decapitated. Brains were removed and placed on an ice-cold platform. The cerebral cortex was removed and placed in 20 volumes (weight:volume) of ice-cold preparative buffer (137 mM NaCl, 10.7 mM KCl, 5.8 mM KH2PO4, 8 mM Na2HPO4, 20 mM HEPES (free acid), 5 mM iodoacetamide, 1.6 mM EDTA, pH 7.4); PMSF, dissolved in methanol to a final concentration of 100 μM, was added and the suspension was homogenized by Polytron. The homogenate was centrifuged at 18,000×g for 20 min at 4° C. and the resulting pellet was re-suspended in 20 volumes of ice-cold water. After 60 min incubation on ice, a new pellet was collected by centrifugation at 18,000×g for 20 min at 4° C. The final pellet was re-suspended in 10 volumes of buffer and stored at −20° C.
as §1, §2, §3

rats = assay: Novel object recognition (NOR) task; type: in vivo, rat; details: oral, 0.3 mg/kg
Description: FIG. 1 is a chart showing the results of a study on object recognition in rats treated orally with N-(propanoyl)-3,7-diazabicyclo[3.3.0]octane. The results are shown as a function of recognition index (%) versus dose (mg/kg). N-(Propanoyl)-3,7-diazabicyclo[3.3.0]octane is active orally in rats at 0.3 mg/kg in novel object recognition (NOR) task.
The novel object recognition (NOR) task was performed in accord with the description of Ennaceur and Delacour Behav. Brain Res. 100: 85-92 (1988).
Certain exemplified compounds were assessed in the NOR task. Thus, N-(propanoyl)-3,7-diazabicyclo[3.3.0]octane (Compound 10-16, Table 1) was active in NOR in rats, at […]. This provides evidence of the efficacy (and potency) of the compounds of the present invention in treating cognitive deficits, attentional disorders and dementias, and the potential of these compounds for human therapy.

T2 sequence (Q05941 23-502): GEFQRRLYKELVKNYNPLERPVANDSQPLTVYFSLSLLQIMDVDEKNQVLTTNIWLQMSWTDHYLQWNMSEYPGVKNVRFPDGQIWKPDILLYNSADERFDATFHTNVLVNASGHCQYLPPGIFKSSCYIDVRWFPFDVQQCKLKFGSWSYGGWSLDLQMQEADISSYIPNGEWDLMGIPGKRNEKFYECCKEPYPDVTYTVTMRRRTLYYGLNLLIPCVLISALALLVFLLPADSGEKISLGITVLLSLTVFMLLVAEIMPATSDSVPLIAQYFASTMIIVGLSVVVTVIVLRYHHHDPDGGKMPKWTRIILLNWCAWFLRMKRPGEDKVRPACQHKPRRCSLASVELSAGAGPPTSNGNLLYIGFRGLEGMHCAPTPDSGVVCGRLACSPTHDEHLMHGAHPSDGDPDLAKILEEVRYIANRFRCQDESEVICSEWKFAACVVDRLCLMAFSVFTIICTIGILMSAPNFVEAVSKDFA
T3 sequence (P09483 31-630): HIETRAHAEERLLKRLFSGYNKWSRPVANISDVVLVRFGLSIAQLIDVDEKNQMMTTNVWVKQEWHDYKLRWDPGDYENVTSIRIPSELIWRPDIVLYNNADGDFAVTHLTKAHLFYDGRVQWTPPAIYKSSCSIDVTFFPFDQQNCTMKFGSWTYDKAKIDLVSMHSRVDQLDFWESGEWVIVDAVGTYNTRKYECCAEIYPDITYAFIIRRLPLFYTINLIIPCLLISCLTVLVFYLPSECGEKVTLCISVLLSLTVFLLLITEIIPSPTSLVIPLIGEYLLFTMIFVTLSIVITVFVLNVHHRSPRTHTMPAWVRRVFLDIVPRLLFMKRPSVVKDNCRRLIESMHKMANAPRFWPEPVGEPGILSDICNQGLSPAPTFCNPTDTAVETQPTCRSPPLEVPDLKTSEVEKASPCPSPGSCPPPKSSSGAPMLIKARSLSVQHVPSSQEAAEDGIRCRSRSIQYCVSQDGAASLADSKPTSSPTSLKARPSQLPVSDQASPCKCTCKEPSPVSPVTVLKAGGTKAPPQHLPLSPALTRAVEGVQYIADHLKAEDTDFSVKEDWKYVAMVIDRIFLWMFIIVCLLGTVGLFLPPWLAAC
T3 sequence (P12390 25-500): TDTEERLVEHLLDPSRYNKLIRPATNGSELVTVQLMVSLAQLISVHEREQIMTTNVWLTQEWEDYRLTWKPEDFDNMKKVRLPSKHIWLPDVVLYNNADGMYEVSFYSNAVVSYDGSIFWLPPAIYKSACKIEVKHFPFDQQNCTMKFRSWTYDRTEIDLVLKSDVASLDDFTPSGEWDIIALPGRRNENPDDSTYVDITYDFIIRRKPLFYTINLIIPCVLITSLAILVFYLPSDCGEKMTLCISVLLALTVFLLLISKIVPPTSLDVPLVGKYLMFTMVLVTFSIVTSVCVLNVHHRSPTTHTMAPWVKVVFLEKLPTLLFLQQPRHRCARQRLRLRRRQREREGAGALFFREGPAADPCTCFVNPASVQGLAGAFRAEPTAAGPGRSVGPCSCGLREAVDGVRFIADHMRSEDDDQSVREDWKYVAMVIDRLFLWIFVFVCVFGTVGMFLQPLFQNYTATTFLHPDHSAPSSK
T1 sequence (P43681 29-627 limits assumed): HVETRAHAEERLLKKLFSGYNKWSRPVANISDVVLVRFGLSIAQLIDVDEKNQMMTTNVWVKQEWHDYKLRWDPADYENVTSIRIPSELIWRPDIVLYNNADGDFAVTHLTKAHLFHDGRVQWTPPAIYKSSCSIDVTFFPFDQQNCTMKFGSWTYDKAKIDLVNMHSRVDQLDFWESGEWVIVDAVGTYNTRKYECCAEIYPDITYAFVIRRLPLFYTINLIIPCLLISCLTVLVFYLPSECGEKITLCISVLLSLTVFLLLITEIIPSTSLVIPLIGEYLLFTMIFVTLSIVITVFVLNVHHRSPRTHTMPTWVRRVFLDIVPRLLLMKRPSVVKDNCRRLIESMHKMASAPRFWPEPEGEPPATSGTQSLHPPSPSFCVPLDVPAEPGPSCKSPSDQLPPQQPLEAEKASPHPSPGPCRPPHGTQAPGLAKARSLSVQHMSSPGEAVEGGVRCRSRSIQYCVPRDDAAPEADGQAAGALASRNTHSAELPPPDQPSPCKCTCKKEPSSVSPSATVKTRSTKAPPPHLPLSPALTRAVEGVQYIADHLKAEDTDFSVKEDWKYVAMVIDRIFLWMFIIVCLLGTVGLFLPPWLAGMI
T1 sequence (P17787 26-502): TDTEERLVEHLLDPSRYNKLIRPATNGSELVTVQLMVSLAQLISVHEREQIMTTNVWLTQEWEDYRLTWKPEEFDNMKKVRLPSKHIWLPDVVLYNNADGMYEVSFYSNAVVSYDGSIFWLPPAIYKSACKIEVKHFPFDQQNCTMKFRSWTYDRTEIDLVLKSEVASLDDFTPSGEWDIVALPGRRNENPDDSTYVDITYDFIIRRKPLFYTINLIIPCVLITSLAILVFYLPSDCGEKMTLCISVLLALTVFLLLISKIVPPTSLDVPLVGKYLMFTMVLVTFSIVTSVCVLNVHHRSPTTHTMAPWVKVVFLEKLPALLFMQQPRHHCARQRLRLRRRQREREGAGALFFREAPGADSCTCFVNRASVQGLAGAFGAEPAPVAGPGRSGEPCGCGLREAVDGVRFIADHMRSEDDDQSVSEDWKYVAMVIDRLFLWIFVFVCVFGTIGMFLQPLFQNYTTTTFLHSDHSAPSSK

| Structure (SMILES) | Ki (human α4β2 nAChR subtype) [nM] | inhibition at 5 µM (α7 nAChR subtype) [%] | Rat α4β2 high through-put screening (HTS) result (rat α4β2 nAChR subtype [1]) | Ki (rat α4β2 nAChR subtype [2]) [nM] | Ki (α7 nAChR subtype) [nM] | activity in novel object recognition (NOR) task (recognition index) (rats) |
| --- | --- | --- | --- | --- | --- | --- |
| O=C(Cc1cccnc1)N1CC2CNCC2C1 (stereo not shown) [Example 10-6] | 489 | < 50 | ND; failed HTS (the compound failed to inhibit, at 5 μM concentration, the binding of 5 nM ^3H-nicotine by at least 50%) |  |  |  |
| CC1(C)CC(C(=O)N2CC3CNCC3C2)C1 (stereo not shown) [Example 10-50] | 129 | < 50 | ND; failed HTS (the compound failed to inhibit, at 5 μM concentration, the binding of 5 nM ^3H-nicotine by at least 50%) |  |  |  |
| O=C(C1C2CCCCC21)N1CC2CNCC(C2)C1 (stereo not shown) [Example 10-97] | 64.1 | < 50 | ND; failed HTS (the compound failed to inhibit, at 5 μM concentration, the binding of 5 nM ^3H-nicotine by at least 50%) |  |  |  |
| COC(C(=O)N1CC2CNCC(C2)C1)c1ccccc1 (stereo not shown) [Example 10-65] | 386 | < 50 | ND; failed HTS (the compound failed to inhibit, at 5 μM concentration, the binding of 5 nM ^3H-nicotine by at least 50%) |  |  |  |
| O=C(N1CC2CNCC2C1)C1(O)CC1 (stereo not shown) [Example 10-22] | 343 | < 50 |  | 445 |  |  |
| O=C(C1CC2C=CC1C2)N1CC2CNCC(C2)C1 (stereo not shown) [Example 10-94] | 12.6 | < 50 |  | 22.7 |  |  |
| CCCC(=O)N1CC2CNCC2C1 (stereo not shown) [Example 10-15] | 48.8 | < 50 |  | 112 |  |  |
| CC1CC1C(=O)N1CC2CNCC2C1 (stereo not shown) [Example 10-21] | 4.2 | < 50 |  | 4.1 |  |  |
| O=C(CCF)N1CC2CNCC2C1 (stereo not shown) [Example 10-30] | 14.8 | < 50 |  | 22.4 |  |  |
| O=C(CC1CC1)N1CC2CNCC(C2)C1 [Example 10-83] | 33.9 | < 50 |  | 13.3 |  |  |
| CC(=O)N1CC2CNCC2C1 (stereo not shown) [Example 10-1] | 38.5 | < 50 |  | 20.5 |  |  |
| O=C([C@@H]1CC2C=CC1C2)N1CC2CNCC2C1 (stereo partly shown) [Example 10-44] | 3.4 | < 50 |  | 9.3 |  |  |
| CC1CC1C(=O)N1CC2CNCC(C2)C1 (stereo not shown) [Example 10-71] | 1 |  |  | 1.4 | 78.7 |  |
| O=C(C(O)c1ccccc1)N1CC2CNCC(C2)C1 (stereo not shown) [Example 10-64] | 1530 | < 50 | ND; failed HTS (the compound failed to inhibit, at 5 μM concentration, the binding of 5 nM ^3H-nicotine by at least 50%) |  |  |  |
| O=C(Cn1ccnc1)N1CC2CNCC(C2)C1 [Example 10-99] | 821 | < 50 |  | 1320 |  |  |
| C[C@@H]1C(C(=O)N2CC3CNCC3C2)[C@@H]1C (stereo partly shown) [Example 10-51] | 44.6 |  |  | 17.6 | 4790 |  |
| O=C(C1CC=CCC1c1cccnc1)N1CC2CNCC(C2)C1 (stereo not shown) [Example 10-101] | 69.6 | < 50 |  | 602 |  |  |
| CCC(=O)N1CC2CNCC2C1 (stereo not shown) [Example 10-14] | 8.5 | < 50 |  | 16.9 |  |  |
| O=C(C1CC=CCC1)N1CC2CNCC2C1 (stereo not shown) [Example 10-49] | 133 | < 50 |  | 236 |  |  |
| CC(C)=CC(=O)N1CC2CNCC2C1 (stereo not shown) [Example 10-10] | 79.7 | < 50 |  | 54.2 |  |  |
| CCC(=O)N1CC2CNCC2C1 (stereo not shown) [Example 10-16, N-(propanoyl)-3,7-diazabicyclo[3.3.0]octane] |  |  |  |  |  | active |
| CCC(=O)N1CC2CNCC(C2)C1 [Example 10-63] | 10.4 |  |  | 12.1 | 795 |  |
| O=C(C1CCCC1)N1CC2CNCC(C2)C1 [Example 10-86] | 20.2 |  |  | 26.6 | 211 |  |
| COCCC(=O)N1CC2CNCC2C1 (stereo not shown) [Example 10-13] | 220 | < 50 |  | 305 |  |  |
| O=C(C1CC1)N1CC2CNCC2C1 (stereo not shown) [Example 10-2] | 1.8 |  |  | 17.3 | 919 |  |
